# Test results as given in paper PMC7127469 (European Journal of Medicinal Chemistry, 2010).
# pEC50: −log10 of the molar value.
# Experiments:
# Assay type in all cases: cell-based
# [1] = system: influenza A H3N2 subtype; test: Antiviral assay, inhibition of virus-induced cytopathic effect, MDCK cells
# [2] = system: influenza B; test: as above
# [3] = system: influenza A H1N1 subtype; test: as above
# [4] = system: Vesicular stomatitis virus; test: microbe, parasite or virus in culture; conditions: HEL
# [5] = system: feline herpes virus; test: organism not typed; conditions: CRFK, virus o, CRFK cells
# [6] = system: herpes simplex virus-2 (G); test: microbe, parasite or virus in culture; conditions: Human alphaherpesvirus 2, HEL, virus e, HEL cells
# [7] = system: herpes simplex virus-1(KOS); test: microbe, parasite or virus in culture; conditions: Human alphaherpesvirus 1, HEL, virus d, HEL cells
# [8] = system: vaccinia virus; test: microbe, parasite or virus in culture; conditions: Orthopoxvirus vaccinia, HEL
# [9] = system: para-influenza-3 virus; test: organism not typed; conditions: Vero, virus i, Vero cells
# [10] = system: reovirus-1; test: organism not typed; conditions: Vero, virus j, reovirus-1, Vero cells
# [11] = system: punta toro virus; test: microbe, parasite or virus in culture; conditions: Vero, virus m, Vero cells
# [12] = system: coxsackie virus B4; test: microbe, parasite or virus in culture; conditions: Enterovirus B, B4, HeLa, coxsackie virus B4, HeLa cells
# [13] = system: coxsakie virus B4; test: organism not typed; conditions: Vero
# [14] = system: Vesicular stomatitis virus; test: microbe, parasite or virus in culture; conditions: HeLa
# [15] = system: sindbis virus; test: microbe, parasite or virus in culture; conditions: Vero, virus k, Vero cells
# [16] = virus q, influenza A H3N2 subtype, MDCK cells
# [17] = virus p, influenza A H1N1 subtype, MDCK cells
compound,measurement,setting,value
CCC(CC)O[C@@H]1C=C(C(=O)O)C[C@H](N)[C@H]1NC(C)=O [Oseltamivir-carboxylate],pEC50,"[1]; Influenza A virus, H3N2, MDCK",5.77
same,pEC50,[2],5.40
same,pEC50,"[3]; Influenza A virus, H1N1, MDCK",7.15
CC(N)C12CC3CC(CC(C3)C1)C2 (centres unmarked) [Rimantidin],pEC50,[1]; [16],6.10
same,pEC50,[3]; [17],4.70
Nc1nc(O)c2ncn(COC(CO)CO)c2n1 [Ganciclovir],pEC50,[4],< 4.00
same,pEC50,[5],5.59
same,pEC50,[6],7.52
same,pEC50,[7],7.52
same,pEC50,[8],< 4.00
NC(=O)c1ncn([C@@H]2O[C@H](CO)[C@@H](O)[C@H]2O)n1 [Ribavirin],pEC50,[4],< 3.60
same,pEC50,"[1]; Influenza A virus, H3N2, MDCK",5.05
same,pEC50,[2],5.05
same,pEC50,[6],4.30
same,pEC50,[9],4.02
same,pEC50,[7],5.00
same,pEC50,[10],3.60
same,pEC50,[11],4.30
same,pEC50,[12],4.52
same,pEC50,"[3]; Influenza A virus, H1N1, MDCK",5.15
same,pEC50,[8],4.07
same,pEC50,[13],< 3.60
same,pEC50,[14],5.00
Nc1ncnc2c1ncn2C[C@H](O)CO [(S)-DHPA],pEC50,[9],< 3.60
same,pEC50,[10],< 3.60
same,pEC50,[11],< 3.60
same,pEC50,[12],< 3.60
same,pEC50,[13],< 3.60
same,pEC50,[15],< 3.60
O=c1[nH]c(=O)n([C@H]2C[C@H](O)[C@@H](CO)O2)cc1/C=C/Br [Brivudine],pEC50,[4],< 3.60
same,pEC50,[6],4.30
same,pEC50,[7],7.10
same,pEC50,[8],5.70
NC12CC3CC(CC(C3)C1)C2 [Amantidin],pEC50,[1]; [16],5.40
same,pEC50,[3]; [17],4.35
